In the NIST ThermoML archive (doi:10.1016/j.fluid.2014.08.014):
Numbers after ± are expanded uncertainties.

test: refractive index (Na D-line) (dimensionless); settings: 293.15 K; 101.33 kPa; Liquid; Standard Abbe refractometry

Row | Structure (SMILES) | refractive index
1 | CC(C)CO [2-methyl-1-propanol] | 1.3955 ± 0.0005
2 | CCO [ethanol] | 1.3616 ± 0.0005
3 | CC(C)(C)O [2-methylpropan-2-ol] | 1.3881 ± 0.0005
4 | CCCCOC(C)=O [butyl ethanoate] | 1.3951 ± 0.0005
5 | O [water] | 1.3328 ± 0.0005
